Legend:
Format in all cases: cell-based
[1] = system: control CHO-K1 cells; test: Changes in intracellular calcium levels on FLIPR, control CHO-K1 cells with only expression vector pAKKO-111H
Method: (§1) The CHO-K1 cell line (purchased from ATCC) was incubated in HAM F-12 medium (Invitrogen) supplemented with 10% fetal calf serum, unless otherwise indicated. On the day before transfection, the cells were inoculated at 4.5×10^5/10 cm^2 and incubated at 37° C. for 15 hours or more in a CO2 incubator adjusted to 5% CO2 concentration. Using Lipofectamine reagent (Invitrogen), transfection was performed according to modifications of the procedure attached to the reagent. When a 6-well plate was used as the incubator, the transfection was performed as follows. Two tubes each having a 1.5 ml volume were prepared and 100 μl each of Opti-MEM medium (Invitrogen) was dispensed in each tube. Next, 1 μg of the GPR35 expression vector obtained in REFERENCE EXAMPLE 1 and 0.5 μg of Gα15 expression vector (Guthrie cDNA Resource Center) were incorporated into one tube and in another tube, 6 μl of Lipofectamine reagent was charged, which were then mixed together. The mixture was settled for 20 minutes at room temperature. To the solution, 800 μl of Opti-MEM medium was added and the resulting solution mixture for transfection was added to the CHO-K1 cells, which had been previously washed with Opti-MEM medium. The cells were then incubated in a CO2 incubator for 6 hours. After the incubation, the cells were rinsed with PBS (Invitrogen), then detached by 0.05% trypsin-EDTA solution (Invitrogen) and recovered by centrifugal operation. The cells obtained were counted and diluted to 5×10^4 cells per 100 μl of the medium. The dilution was dispensed to a black walled 96-well plate (Costar) at 100 μl per well, followed by incubation overnight in a CO2 incubator. Various test samples were added to the CHO-K1 cells, in which the receptor was transiently expressed, by the transfection procedure described above, whereby changes in intracellular calcium levels were assayed on a FLIPR (Molecular Device).
(§2) To assay the changes in intracellular calcium levels on FLIPR, the following pretreatment was made. First, an assay buffer was prepared to add fluorescence dye Fluo-3AM (DOJIN) to the cells, or to wash the cells immediately before the FLIPR assay. A solution was prepared by adding 20 ml of 1M HEPES (pH 7.4) (DOJIN) to 1000 ml of HBSS (Invitrogen) (hereinafter HBSS/HEPES solution). To the solution, there was added 10 ml of a solution obtained by dissolving 710 mg of Probenecid (Sigma) in 5 ml of 1N NaOH and further adding 5 ml of HBSS/HEPES solution thereto and mixing them. The resulting solution was used as an assay buffer. Next, 50 μg of Fluo-3AM was dissolved in 21 μl of DMSO (DOJIN), and an equal volume of 20% pluronic acid (Molecular Probes) was added to the solution. After mixing them, the mixture was added to 10.6 ml of an assay buffer supplemented with 105 μl of fetal calf serum to give a fluorescence dye solution. After the medium for the transfected CHO-K1 cells was removed, the fluorescence dye solution was immediately dispensed at 100 μl each per well and incubation was carried out in a CO2 incubator for an hour to take up the fluorescence dye into the cells. The incubated cells were washed with the assay buffer described above and set on FLIPR. Test samples to be added to the receptor-expressed CHO-K1 cells were prepared using the assay buffer and simultaneously set on FLIPR.
After the pretreatment described above was made, changes in intracellular calcium levels by the addition of various test samples were assayed on FLIPR. […]

[2] = molecular target: T1, human TGR23 (Homo sapiens, UniProt Q6W5P4); test: MAPK phosphorylation in control cells (human TGR23-expressed CHO cells)
T1 construct: expressed in transfected cells; host or cells: CHO cells
T1 sequence (Q6W5P4 1-371): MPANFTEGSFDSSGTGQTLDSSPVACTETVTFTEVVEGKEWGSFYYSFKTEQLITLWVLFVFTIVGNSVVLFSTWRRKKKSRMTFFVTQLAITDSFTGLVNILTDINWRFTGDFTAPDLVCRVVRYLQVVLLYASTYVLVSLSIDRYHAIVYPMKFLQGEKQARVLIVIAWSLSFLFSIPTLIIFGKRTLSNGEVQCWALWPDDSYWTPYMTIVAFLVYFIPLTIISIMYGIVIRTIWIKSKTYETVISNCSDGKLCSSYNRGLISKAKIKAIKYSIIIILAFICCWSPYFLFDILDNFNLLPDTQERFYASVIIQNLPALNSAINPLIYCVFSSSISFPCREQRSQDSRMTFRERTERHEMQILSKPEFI

[3] = molecular target: T2, GPR35 (Homo sapiens, UniProt Q9HC97, S294R); test: Suppression of forskolin-increased intracellular cAMP levels in human GPR35-expressed CHO cell line; parameters: The resulting fragment (ca. 1 kb) was introduced into vector pAKKO-111; expressed in transfected cells; conditions: 2 μM forskolin, 37° C., 30 minutes (FIG. 3)
Method: The human GPR35-expressed CHO cells obtained in REFERENCE EXAMPLE 1 were washed with an assay buffer (HBSS (Gibco/BRL) supplemented with 0.1% bovine serum albumin and 0.2 mM isobutylmethylxanthine), followed by incubation at 37° C. for 30 minutes under conditions of 5% CO2. DNQX and NBQX were diluted with the assay buffer and the dilutions were added to the cells at respective concentrations. Thereafter forskolin was added to become 2 μM. Incubation was performed at 37° C. for 30 minutes under conditions of 5% CO2. The culture supernatant was discarded and the intracellular cAMP level was assayed on a plate reader (EnVision, Perkin Elmer) in accordance with the protocol of cAMP Screen Kit (Applied Biosystems).

[4] = molecular target: T2, GPR35; test: Changes in intracellular calcium levels on FLIPR, CHO-K1 cells transiently co-expressing GPR35 and Gα15; parameters: The resulting fragment (ca. 1 kb) was introduced into vector pAKKO-111; expressed in transfected cells; host or cells: CHO-K1 (ATCC), transient transfection; conditions: Fluo-3AM, 0.3-10 μM shown for DNQX and ellagic acid (FIG. 1, 2)
Method: as §1, §2
After the pretreatment described above was made, changes in intracellular calcium levels by the addition of various test samples were assayed on FLIPR.

T2 sequence (Q9HC97 whole entry S294R, the tested form may be a part): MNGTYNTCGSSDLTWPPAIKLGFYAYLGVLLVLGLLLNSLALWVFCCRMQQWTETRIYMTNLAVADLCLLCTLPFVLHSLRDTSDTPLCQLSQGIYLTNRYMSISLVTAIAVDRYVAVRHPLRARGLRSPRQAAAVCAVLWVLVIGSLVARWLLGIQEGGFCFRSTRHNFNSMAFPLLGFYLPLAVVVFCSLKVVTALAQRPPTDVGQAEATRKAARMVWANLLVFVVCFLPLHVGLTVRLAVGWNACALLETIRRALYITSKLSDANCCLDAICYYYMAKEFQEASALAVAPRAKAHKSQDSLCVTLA

In the case of `NS(=O)(=O)c1cccc2c3c(cc([N+](=O)[O-])c12)=NC(=O)C(=O)N=3` [NBQX, 6-nitro-7-sulfamoylbenzo[f]quinoxaline-2,3-dione], the “response (increased intracellular calcium levels) in control cells” value [1] is reported as “not observed”, the “level of phosphorylated MAP-kinase in control cells” value [2] is reported as “any enhanced level of phosphorylation was not observed” and the “decrease of intracellular cAMP levels increased by forskolin addition” value [3] is reported as “dose-dependent and specific decrease”. The “response (increased intracellular calcium levels)” value [4] was “dose-dependently responded (increased intracellular calcium levels)”.

In the case of `O=C1N=c2cc([N+](=O)[O-])c([N+](=O)[O-])cc2=NC1=O` [DNQX, 6,7-dinitroquinoxaline-2,3-dione], the “response (increased intracellular calcium levels) in control cells” value [1] is reported as “not observed”, the “level of phosphorylated MAP-kinase in control cells” value [2] is reported as “any enhanced level of phosphorylation was not observed” and the “decrease of intracellular cAMP levels increased by forskolin addition” value [3] is reported as “dose-dependent and specific decrease”. The “response (increased intracellular calcium levels)” value [4] was “dose-dependently responded (increased intracellular calcium levels)”.

Source: patent US7892755B2, “Screening method” (Takeda Pharmaceutical Company Limited, priority 2004, dated 2011)
